Measured values published in ChEMBL document CHEMBL3507680, “University of Dundee, Gates Library screen for HepG2 cell viability”.

Test: Human HepG2 cell viability assay in 384 well format
Type: toxicity, cell-based
Set-up: dose 125 nL, time 70.5 hour; cytotoxicity at 70.5 h: concentration not given beside the values
Details: HepG2 cells, read-out: Inhibition

Row | SMILES | cytotoxicity at 70.5 h [%]
1 | C[S+]([O-])CCNC(=O)Nc1cc(F)ccc1-n1cccn1 (stereo unspecified) | 15.9
2 | CC(=O)N1CCC(NS(=O)(=O)c2cccnc2)CC1 | 8
3 | CC(C)C(=O)N1CCN(Cc2cnn(C)c2)CC2(CC(=O)N(C)C2)C1 (stereo unspecified) | -13.2
4 | Cc1ccc(CN2CCS(=O)(=O)C(C)(C)C2)cc1C | 20.3
5 | C=C(C)COc1ccc(C(=O)NCCn2c(C)cc(C)nc2=O)cc1 | -6.24
6 | O=C(NCCc1ccc(F)cc1)NCC(O)c1cccc(F)c1 (stereo unspecified) | 23.3
7 | CCc1cc2cc(OC)c(OC)cc2nc1SCCN1CCCCC1 | 1.15
8 | Cc1cc(C)n(C2CN(CCC(=O)NC3CCCCC3)C2)n1 | -4.9
9 | CCNc1nc(-c2cccnc2)c(-c2ccnc(N3CCOCC3)n2)s1 | -10.7
10 | CCOC(=O)CSc1nnc([C@@H](N)C(C)CC)o1 (stereo partly specified) | -9.94
11 | Cc1ccc(C)c(NC(=O)Cn2nc(C)c(C#N)c2N)c1 | -10.2
12 | CC(C)Nc1cccc(CC2CCN(C)C2)n1 (stereo unspecified) | -5.89
13 | CN(C)C(=O)c1n[nH]c2c1CN(CC1CCCCC1)C2 | -2.71
14 | Cc1nn(C)cc1C(=O)N1CCC(C(=O)c2nc3ccccc3s2)CC1 | -4.17
15 | CC(C)Cn1cc(NCc2cscn2)cn1 | 9.5
16 | COc1cccc(C(=O)N2CCCC2c2ncc3c(n2)CCN(C)C3)c1 (stereo unspecified) | -0.392
17 | CN(C)C(=O)CN1C[C@@H]2CC[C@H](C1)N(C(=O)CCn1cncn1)C2 | -12.6
18 | CN(C)C(=O)N1CCC2(CC1)C(c1cnn(C)c1)CC(=O)N2C (stereo unspecified) | -7.08
19 | C=C(C)CN1CCC(C(=O)c2cc(F)ccc2F)CC1 | 0.664
20 | CC(C)Nc1cc(N2CCN(Cc3ccccc3)C(CCO)C2)ncn1 (stereo unspecified) | -1.73
21 | C[C@@H]1CN(C2Cc3ccccc3C2)CC[C@@]1(O)C1CCOCC1 | -10.1

Row | SMILES | cytotoxicity at 70.5 h [%]
22 | COCCC(=O)N1CC[C@H]2O[C@@H](C)C[C@H]2C1 | -7.16
23 | Cn1cc(C(=O)N2CCCC2CCc2ccccc2)cn1 (stereo unspecified) | -9.35
24 | Cn1ccnc1CN1CCC2(CC1)CN(Cc1cccnc1)C(=O)CO2 | -5.54
25 | c1csc(CN2CCC3(CCCN(c4nncs4)C3)C2)n1 (stereo unspecified) | -1.22
26 | N#Cc1ccc(C(=O)NCC2(N3CCOCC3)CCCC2)nc1 | -4.06
27 | CCc1ccc(CN2CCC3(CC2)C(=O)N(C)CCN3CC2CC2)cc1 | -13.9
28 | Cc1cccc(-c2noc(CNC(C)Cn3cc(C)cn3)n2)c1 (stereo unspecified) | -0.846
29 | Cc1cc(C2CCCN(CCCNS(C)(=O)=O)C2)n[nH]1 (stereo unspecified) | -25.3
30 | CC(C)c1nnsc1CN1CCc2[nH]nc(-c3ccc(Cl)cc3)c2C1 | 9.53
31 | Cc1ccc(OCC(=O)N2CCCC(n3nc(C)nc3C)C2)cc1 (stereo unspecified) | -8.6
32 | CNC(=O)[C@@]12CCO[C@@H]1CCN(S(=O)(=O)c1cccc(F)c1)C2 | -10.2
33 | Cc1ccc(CNC(=O)C2CCCCN2C(=O)OC(C)(C)C)cn1 (stereo unspecified) | -3.38
34 | Fc1ccc(-c2n[nH]cc2CNCCn2cccn2)cc1 | -4.83
35 | CCn1ncc(CN(C)C(=O)c2ccn(C)n2)c1C | -6.74
36 | Cc1ccc(CN2C[C@@H]3CCN(Cc4ccncc4)C(=O)[C@H]3C2)s1 | -8.9
37 | COc1ccc(CN2CCc3ncnc(C4CC4)c3CC2)cc1 | 1.6
38 | Cn1cc(C(O)CNC(=O)c2ccc(F)cc2Cl)cn1 (stereo unspecified) | -13
39 | Cc1ccc(S(=O)(=O)N2C[C@H]3C[C@H](NC(=O)c4ccnn4C)[C@H]3C2)cc1 | 46.1
40 | CCCS(=O)(=O)N1CCC2(CN(c3ccccc3)C(=O)CN2C)C1 (stereo unspecified) | -87.7
41 | Cc1noc(CSc2ccc(C(F)(F)F)cn2)n1 | -6.64
42 | CC(C)c1nnc2sc(CC3CN(Cc4ccccc4)CCO3)nn12 (stereo unspecified) | 6.69

Row | SMILES | cytotoxicity at 70.5 h [%]
43 | Cc1n[nH]c(C)c1CCc1nc(C2CC2)n[nH]1 | -6.37
44 | COCCn1ccnc1-c1cc(CN2CCCCC2)cs1 | 33.9
45 | c1cc(CN2CCOC(Cn3cccn3)C2)c2c(c1)OCCO2 (stereo unspecified) | -14.1
46 | Cc1cccc(Nc2ccc(C3CCCCN3)cn2)n1 (stereo unspecified) | 4.51
47 | CN(C(=O)c1ccc[nH]1)C1CCC(NC(=O)OC(C)(C)C)CC1 (stereo unspecified) | -17.5
48 | Cc1ccc(S(=O)(=O)N2CCc3nc(C4CCNCC4)ncc3C2)cc1 | -8.7
49 | CC(NC(=O)c1cccnc1N(C)C)c1ccccc1Br (stereo unspecified) | 20.1
50 | Cc1ccc(CN(C(=O)C(C)S(C)(=O)=O)C2CC2)cc1C (stereo unspecified) | -4.96
51 | Cc1cc(C)n(-c2cncc(N3CCC(C(=O)N(C)C)CC3)n2)n1 | 11.2
52 | COc1c(C2CCCN2C(=O)c2cnccn2)c(C)nn1C (stereo unspecified) | 20.2
53 | CCCc1nccn1CCn1cnc2ccsc2c1=O | 1.1
54 | CC(=O)Nc1ccc(OCc2noc(C(=O)N3CCCCCC3)n2)cc1 | -21.4
55 | O=C(CSCc1ccccn1)NCC1CCN(C2CC2)C1 (stereo unspecified) | 0.243
56 | Cc1csc2c(N3CCC(NCCc4ccnn4C)CC3)ncnc12 | 6.94
57 | COc1ccc2nc3n(c2c1)[C@@H](CNC(=O)c1cncnc1)COC3 | -2.36
58 | O=C(c1ccccn1)N1CCN(C(c2ccccc2)C(F)(F)F)CC1 (stereo unspecified) | 11.9
59 | CC(C)=CCN1CCN(C(=O)c2cc(C(C)C)on2)[C@H]2CS(=O)(=O)C[C@H]21 | -8.01
60 | COC(=O)C(C)(C)NC(=O)C1CC(=O)N(C)C1 (stereo unspecified) | -7.02
61 | COCc1nnc(-c2cccc(C(=O)N(C)CC(C)(C)C)c2)o1 | -14.1
62 | CC(=O)Nn1c(C)cc(CN2CCCN(Cc3ccncc3)CC2)c1C | -0.666
63 | CCS(=O)(=O)N1CCc2ccc(NC(=O)Nc3ccccc3)cc21 | 9.4

Row | SMILES | cytotoxicity at 70.5 h [%]
64 | CC(C)n1cnnc1CN(C)Cc1ccc(CO)o1 | -22.8
65 | CCc1nccn1CC1CCCN1S(=O)(=O)Cc1ccccc1 (stereo unspecified) | -10.3
66 | Cc1c(C(=O)O)cnn1-c1ccc(-c2nc(C(C)C)no2)cn1 | -15.1
67 | CC(=O)N1CCCC(c2ccc(CO)c(-c3c(C)noc3C)n2)C1 (stereo unspecified) | 27.2
68 | O=C(CN1CCOC(Cn2cccn2)C1)Nc1nncs1 (stereo unspecified) | 34.7
69 | CC(c1nnc(-c2ccccc2)o1)N1CCc2cncnc2C1 (stereo unspecified) | -4.24
70 | CC(O)CN1CCc2onc(C(c3ccccc3)c3ccccc3)c2C1 (stereo unspecified) | -10
71 | Cc1cccc(C(C)C)c1NC(=O)NCCN(C(C)C)C(C)C | -4.96
72 | Cc1ccc2nc(C(=O)N3CCCC[C@]4(C)NC(=O)CCC[C@H]34)cn2c1 | -4.04
73 | Cn1cc(CN2C[C@@H]3COC[C@]3(C(=O)NCc3cccs3)C2)cn1 | -6.51
74 | COCC(=O)Nc1ccnc(OCCN(C)C)c1 | 4.63
75 | O=C(Cn1c(C(F)F)cc2cccnc21)NC1CCCC1 | -2.74
76 | COCC1CN(C(=O)Cc2ccccn2)Cc2ncnn2C1 (stereo unspecified) | 16.8
77 | CC(O)(CNC(=O)c1cccnc1-n1cccn1)c1cccs1 (stereo unspecified) | -9.1
78 | Cc1cc(C)n(CC2CCCN2C(=O)CCNc2ncccn2)n1 (stereo unspecified) | -4.55
79 | CCc1nccn1C1CCCN(C(=O)c2csc(NC(C)=O)n2)C1 (stereo unspecified) | -16.5
80 | CCN1CCN(C[C@@H]2CN(c3ncc(Cl)cc3F)C[C@@H]2CO)CC1 | -10.9
81 | Cc1c(C2CC(=O)Nc3c2cnn3C(C)C)cnn1C (stereo unspecified) | -10.4
